Each structure is given as a SMILES string.

Here are results for 20 molecules from ChEMBL document CHEMBL5325432, “Systematic study of 1,2,3-triazolyl sterols for the development of new drugs against parasitic Neglected Tropical Diseases” (Eur J Med Chem, 2023).

The test system of one series is Trypanosoma cruzi. The experiment in a line: Antiparasitic activity against Trypanosoma cruzi epimastigotes assessed as parasite growth inhibition incubated for 14 days by Alamar blue assay. The format is functional, organism-based. The conditions noted are these: 336 h.
Series [1] is described as follows: Selectivity index, ratio of IC50 for cytotoxicity against African green monkey Vero cells to IC50 for antiparasitic activity against Trypanosoma brucei assessed as parasite growth inhibition. It is filed as toxicity, cell-based. The conditions noted are these: read-out: Ratio IC50.
Series [2] can be described thus: Cytotoxicity against African green monkey Vero cells incubated for 48 hrs. The conditions noted are these: African green monkey (Chlorocebus sabaeus). It is filed as toxicity, cell-based.
A further series deals with Trypanosoma brucei. As to the kind of experiment: Antiparasitic activity against Trypanosoma brucei assessed as parasite growth inhibition incubated for 3 days by Alamar blue assay. The format is functional, organism-based. The conditions noted are these: 72 h.
The test system of another series is Leishmania donovani. The experiment in a line: Antileishmanial activity against Leishmania donovani S1 promastigotes assessed as parasite growth inhibition incubated for 72 hrs by Alamar blue assay. It is filed as functional, organism-based. The conditions noted are these: S1, 72 h.
The nature of series [3]: Selectivity index, ratio of IC50 for cytotoxicity against African green monkey Vero cells to IC50 for antileishmanial activity against Leishmania donovani S1 promastigotes assessed as parasite growth inhibition. The format is toxicity, cell-based. To be noted: read-out: Ratio IC50.

For the molecule `CC(=O)O[C@H]1CC[C@@]2(C)C(=CC[C@H]3[C@@H]4CC[C@H]([C@@H](C)NCc5cn(Cc6ccccc6)nn5)[C@@]4(C)CC[C@@H]32)C1`, the 50% inhibitory concentration (IC50) is more than 10 µM in the series with Trypanosoma cruzi, 1.15 µM with Trypanosoma brucei and more than 10 µM with Leishmania donovani. Also, the selectivity ratio in series [1] is more than 6.22. The half-maximal inhibitory concentration (IC50) at 48 h in series [2] was more than 7.16 µM.
`CC(=O)O[C@H]1CC[C@@]2(C)C(=CC[C@H]3[C@@H]4CC[C@H]([C@@H](C)NCc5cn(C/C=C(\C)CCC=C(C)C)nn5)[C@@]4(C)CC[C@@H]32)C1`: the selectivity ratio is 0.84 in series [3] and more than 6.93 in series [1]. The IC50 in the series on Trypanosoma cruzi is more than 10 µM; with Trypanosoma brucei it was 1.25 µM; with Leishmania donovani, 10.3 µM. In series [2], this molecule returned an IC50 at 48 h of more than 8.67 µM.
For the molecule `CCCCCCCCn1cc(CN[C@@H](C)[C@H]2CC[C@H]3[C@@H]4CC=C5C[C@@H](OC(C)=O)CC[C@]5(C)[C@H]4CC[C@]23C)nn1`, the selectivity ratio in series [3] is more than 1.15; in series [1] it was more than 14.6. For the same molecule, the values for the concentration for half-maximal inhibition (IC50) with Trypanosoma cruzi, in the series on Trypanosoma brucei and with Leishmania donovani were more than 10 µM, 0.62 µM and 7.87 µM, respectively. Also, the IC50 at 48 h in series [2] is more than 9.04 µM.
Take `C[C@]12CC[C@H]3[C@@H](CC=C4C[C@@H](O)CC[C@@]43C)[C@@H]1CC[C@@H]2[C@@](C)(O)Cn1cc(CCCc2ccccc2)nn1`: the concentration for half-maximal inhibition (IC50) is more than 10 µM in the series on Trypanosoma cruzi, 2.27 µM in the series on Trypanosoma brucei and more than 10 µM in the series on Leishmania donovani. Moreover, the selectivity ratio in series [1] was more than 4.25. In series [2], this molecule showed a 50% inhibitory concentration (IC50) at 48 h of more than 9.66 µM.
Consider `C[C@]12CC[C@H]3[C@@H](CC=C4C[C@@H](O)CC[C@@]43C)[C@@H]1CC[C@@H]2[C@@](C)(O)Cn1cc(CCO)nn1`, for which the values for the IC50 with Trypanosoma cruzi, in the series on Trypanosoma brucei and in the series on Leishmania donovani were more than 10 µM, 1.78 µM and more than 10 µM, respectively. Further, in series [1], the selectivity ratio was more than 6.33. Further, the half-maximal inhibitory concentration (IC50) at 48 h in series [2] is more than 11.3 µM.
Consider `C[C@]12CC[C@H]3[C@@H](CC=C4C[C@@H](O)CC[C@@]43C)[C@@H]1CC[C@@H]2[C@@](C)(O)Cn1cc(-c2ccccc2)nn1`, for which the 50% inhibitory concentration (IC50) in the series with Trypanosoma cruzi, in the series with Trypanosoma brucei and with Leishmania donovani was more than 10 µM each time. Further, the IC50 at 48 h in series [2] is more than 10.5 µM.
For the molecule `C#CCNC[C@](C)(O)[C@H]1CC[C@H]2[C@@H]3CC=C4C[C@@H](O)CC[C@]4(C)[C@H]3CC[C@@]21C`, the half-inhibitory concentration (IC50) was more than 10 µM in the series on Trypanosoma cruzi, 1.77 µM in the series on Trypanosoma brucei and more than 10 µM in the series with Leishmania donovani. In addition, the selectivity ratio in series [1] was more than 6.95. This molecule also came in with an IC50 at 48 h in series [2] of more than 12.3 µM.
`CCCCCCCCn1cc(CN[C@H](C)[C@H]2CC[C@H]3[C@@H]4CC=C5C[C@@H](OC(C)=O)CC[C@]5(C)[C@H]4CC[C@]23C)nn1`: the IC50 is more than 10 µM with Trypanosoma cruzi, 1.98 µM in the series on Trypanosoma brucei and more than 10 µM in the series on Leishmania donovani. Moreover, the selectivity ratio in series [1] is more than 4.57. The molecule further displayed an IC50 at 48 h in series [2] of more than 9.04 µM.
With `C#CCN[C@H](C)[C@H]1CC[C@H]2[C@@H]3CC=C4C[C@@H](OC(C)=O)CC[C@]4(C)[C@H]3CC[C@]12C`, the figures for the half-maximal inhibitory concentration (IC50) in the series with Trypanosoma cruzi, in the series with Trypanosoma brucei and in the series with Leishmania donovani were more than 10 µM, 5.03 µM and more than 10 µM, respectively. In addition, the selectivity ratio in series [1] is more than 2.3. The molecule also came in with an IC50 at 48 h in series [2] of more than 11.9 µM.
For the molecule `COC(=O)c1cn(C[C@](C)(O)[C@H]2CC[C@H]3[C@@H]4CC=C5C[C@@H](O)CC[C@]5(C)[C@H]4CC[C@@]32C)nn1`, the half-maximal inhibitory concentration (IC50) is more than 10 µM in the series with Trypanosoma cruzi, 8.28 µM in the series on Trypanosoma brucei and more than 10 µM with Leishmania donovani. Besides, in series [1], the selectivity ratio is more than 1.28. In series [2], the IC50 at 48 h is more than 10.6 µM.
Take `C[C@]12CC[C@H]3[C@@H](CC=C4C[C@@H](O)CC[C@@]43C)[C@@H]1CC[C@@H]2[C@@](C)(O)CNCc1cn(CCCc2ccccc2)nn1`: in series [3], the selectivity ratio is more than 8.77. In addition, the figures for the IC50 in the series on Trypanosoma cruzi, with Trypanosoma brucei and with Leishmania donovani were more than 10 µM, more than 10 µM and 1.04 µM, respectively. Also, in series [2], the IC50 at 48 h was more than 9.14 µM.
Take `CC(=O)O[C@H]1CC[C@@]2(C)C(=CC[C@H]3[C@@H]4CC[C@H]([C@H](C)NCc5cn(C/C=C(\C)CCC=C(C)C)nn5)[C@@]4(C)CC[C@@H]32)C1`: the selectivity ratio is more than 1.79 in series [3] and more than 13.8 in series [1]. Moreover, the results for the IC50 in the series on Trypanosoma cruzi, in the series on Trypanosoma brucei and in the series on Leishmania donovani were more than 10 µM, 0.63 µM and 4.83 µM, respectively. The molecule also registered an IC50 at 48 h in series [2] of more than 8.67 µM.
Consider `CCOC(=O)Cn1cc(CNC[C@](C)(O)[C@H]2CC[C@H]3[C@@H]4CC=C5C[C@@H](O)CC[C@]5(C)[C@H]4CC[C@@]32C)nn1`, for which the IC50 in the series with Trypanosoma cruzi, with Trypanosoma brucei and in the series with Leishmania donovani was more than 10 µM in each case. The molecule also had an IC50 at 48 h in series [2] of more than 9.71 µM.
For the molecule `CCCCCCCCn1cc(CN[C@H](C)[C@H]2CC[C@H]3[C@@H]4CC=C5C[C@@H](O)CC[C@]5(C)[C@H]4CC[C@]23C)nn1`, the selectivity ratio in series [3] is more than 3.85; in series [1] it was more than 6.53. The half-inhibitory concentration (IC50) in the series with Trypanosoma cruzi was more than 10 µM; in the series with Trypanosoma brucei it was 1.5 µM; in the series with Leishmania donovani, 2.55 µM. Also, in series [2], the half-maximal inhibitory concentration (IC50) at 48 h is more than 9.79 µM.
On to `CCOC(=O)Cn1cc(CN[C@@H](C)[C@H]2CC[C@H]3[C@@H]4CC=C5C[C@@H](O)CC[C@]5(C)[C@H]4CC[C@]23C)nn1`, for which, in series [3], the selectivity ratio was more than 1.61. In addition, the half-maximal inhibitory concentration (IC50) in the series on Trypanosoma cruzi is more than 10 µM; in the series with Trypanosoma brucei, more than 10 µM; with Leishmania donovani, 6.4 µM. The molecule also showed a concentration for half-maximal inhibition (IC50) at 48 h in series [2] of more than 10.3 µM.
As to `C[C@]12CC[C@H]3[C@@H](CC=C4C[C@@H](O)CC[C@@]43C)[C@@H]1CC[C@@H]2[C@@](C)(O)CN=[N+]=[N-]`, the IC50 in the series on Trypanosoma cruzi, in the series with Trypanosoma brucei and in the series on Leishmania donovani was more than 10 µM throughout. The molecule also displayed an IC50 at 48 h in series [2] of more than 12 µM.
Turning to `CCOC(=O)Cn1cc(CN[C@H](C)[C@H]2CC[C@H]3[C@@H]4CC=C5C[C@@H](OC(C)=O)CC[C@]5(C)[C@H]4CC[C@]23C)nn1`, the results for the IC50 with Trypanosoma cruzi, with Trypanosoma brucei and in the series on Leishmania donovani were more than 10 µM, 6.5 µM and more than 10 µM, respectively. Further, the selectivity ratio in series [1] is more than 1.46. In series [2], the concentration for half-maximal inhibition (IC50) at 48 h is more than 9.49 µM.
Turning to `CCOC(=O)Cn1cc(CN[C@H](C)[C@H]2CC[C@H]3[C@@H]4CC=C5C[C@@H](O)CC[C@]5(C)[C@H]4CC[C@]23C)nn1`, the selectivity ratio is more than 1.56 in series [3] and more than 1.59 in series [1]. Also, the values for the IC50 with Trypanosoma cruzi, in the series with Trypanosoma brucei and in the series with Leishmania donovani were more than 10 µM, 6.5 µM and 6.6 µM, respectively. The half-inhibitory concentration (IC50) at 48 h in series [2] is more than 10.3 µM.
As to `CC(C)=CCC/C(C)=C/Cn1cc(CN[C@H](C)[C@H]2CC[C@H]3[C@@H]4CC=C5C[C@@H](O)CC[C@]5(C)[C@H]4CC[C@]23C)nn1`, the selectivity ratio in series [3] is more than 8.2; in series [1], more than 14.2. For the same molecule, the half-inhibitory concentration (IC50) in the series on Trypanosoma cruzi is more than 10 µM; in the series on Trypanosoma brucei, 0.66 µM; in the series on Leishmania donovani it was 1.14 µM. The concentration for half-maximal inhibition (IC50) at 48 h in series [2] was more than 9.35 µM.
For the molecule `N=C(N)c1ccc(OCCCCCOc2ccc(C(=N)N)cc2)cc1` [PENTAMIDINE], the selectivity ratio in series [3] was 7.6.
